Test [1] has as its target extracellular domains of PD-L1 (Homo sapiens (Human), UniProt Q9NZQ7). Put plainly: PD-L1 dimerization (biochemical protein-protein interaction assay). The note with it: PDL1-Eu and PDL1-A2, 25° C., 120 min. The method, then:
Compounds were tested in biochemical protein-protein interaction assays to determine if they can specifically dimerize the extracellular domains of PD-L1. • (1) Dilute cpd 1:3 in succession in DMSO for each column for 10±0 pts (refer to dilution plate map) • (2) Transfer 0.2 μL cpds solution in each row to 384 assay plate using Echo, each column containing 2 replicates (refer to assay plate map). • (3) Add 20 μL prepared mixture include PDL1-Eu and PDL1-A2 solution to assay plate, centrifuge at 1000 rpm for 1 min. • (4) Incubate at 25° C. for 120 min. • (5) Read fluorescence signal on Envision 2104 plate reader. • (6) Read the Ratio (665 nm/615 nm) signal on Envision. • (7) Analyze the raw data using the equation (V. Data analysis)

A further test addresses PD-L1/CHO-K1 cells (Homo sapiens (Human), UniProt Q9NZQ7). Put plainly: PD-L1 internalization (FACS, PD-L1/CHO-K1 cells). It counts as cell-based. Particulars: % activation of PD-L1 internalization = 1 − PD-L1 signal; 17 hours incubation. The method, then: Day 1. Seeding cells: Digest the PD-L1/CHO-K1 cells by trypsin in the flask, then counting the cell number and diluted to 1×10^5 cells/ml. Seeding cells to 6 well plate (Corning, #3516), 2 mL/well. The plates were incubated at 37° C., […] incubator for 24 hours.
Day 2. Preparing compounds and treated cells: Dilute GLC01-258 from 15 mM to 0.5 mM by using DMSO, and 15 mM compound were serial diluted from 15 mM˜15 nM by DMSO, Then 500 times dilute the compounds by using assay buffer. Prepare 0.2% DMSO in assay buffer used for Vehicle control and low control. Take out the plates, aspirated the medium and thrown away. Adding 2 mL of the diluted compounds, vehicle control and low control to corresponding wells. Then incubated the plates for 17 hours at 37° C., 5% CO2 incubator.
Day 3. Preparing samples for FACS: After 17 hours incubation, discarded medium and washed by the PBS. Cells in each well were Digested by trypsin. Centrifuge and discard the supernatant, then wash the cells by DPBS (Ca^2+, Mg^2+ free) for twice. 10 fold dilute the antibody (PE-conjugated mouse anti-human CD274) by DPBS, then adding the staining solution to compounds treated samples and vehicle control sample. The low control only add DPBS without antibody. Incubate the plates at room temperature for 20 minutes and protect from light. After 20 minutes, wash the samples by DPBS for twice. Then centrifuge and discard the supernatant. Resuspend cells by 300 uL DPBS and transfer the samples to 5 mL Polystryrene Round-Bottom Tube (Falcon, #352054), then tested by BD FACSCanto. […].
Set the PD-L1 signal of vehicle control as 100%, PD-L1 signal of Low control as 0%. Then calculate the compound treated samples' PD-L1 signal
0% PD-L1 signal: Low control which stained without anti-CD274
100% PD-L1 Signal: vehicle control which stained with anti-CD274
The % activation of PD-L1 Internalization=1−PD-L1 signal of compound.

For another test, the target named is PD-1/PD-L1 (Homo sapiens (Human), UniProt Q9NZQ7). Put plainly: PD-1/PD-L1 Homogeneous Time-Resolved Fluorescence (HTRF) binding assay. The note with it: 3 nM PD1, 10 nM PD-L1, 25° C., PBS pH 7.4. The method, then:
PD-1/PD-L1 Homogeneous Time-Resolved Fluorescence (HTRF) Binding Assay
The assays were conducted in a standard black 384-well polystyrene plate with a final volume of 20 μL. Inhibitors were first serially diluted in DMSO and then added to the plate wells before the addition of other reaction components. The final concentration of DMSO in the assay was 1%. The assays were carried out at 25° C. in the PBS buffer (pH 7.4) with 0.05% Tween-20 and 0.1% BSA. Recombinant human PD-L1 protein (19-238) with a Histag at the C-terminus was purchased from AcroBiosystems (PD1-H5229). Recombinant human PD-1 protein (25-167) with Fe tag at the C-terminus was also purchased from AcroBiosystems (PD1-H5257). PD-L1 and PD-1 proteins were diluted in the assay buffer and 10 μL was added to the plate well. Plates were centrifuged and proteins were preincubated with inhibitors for 40 minutes. The incubation was followed by the addition of 10 μL of HTRF detection buffer supplemented with Europium cryptate-labeled anti-human IgG (PerkinElmer-AD0212) specific for Fe and anti-His antibody conjugated to SureLight®-Allophycocyanin (APC, PerkinElmer-AD0059H). After centrifugation, the plate was incubated at 25° C. for 60 min. before reading on a PHERAstar FS plate reader (665 nm/620 nm ratio). Final concentrations in the assay were—3 nM PD1, 10 nM PD-L1, 1 nM europium anti-human IgG and 20 nM anti-His-Allophycocyanin. IC50 determination was performed by fitting the curve of percent control activity versus the log of the inhibitor concentration.
Background: Time-resolved FRET reads energy transfer from a long-lived donor to a nearby acceptor.

By EC50 is commonly meant the midpoint of the concentration-response curve. A lower EC50 goes with higher potency in that assay. By IC50 is commonly meant the concentration that gives 50% inhibition. A high value points to weaker potency.

Chain of PD-L1/CHO-K1 cells (Q9NZQ7 19-290): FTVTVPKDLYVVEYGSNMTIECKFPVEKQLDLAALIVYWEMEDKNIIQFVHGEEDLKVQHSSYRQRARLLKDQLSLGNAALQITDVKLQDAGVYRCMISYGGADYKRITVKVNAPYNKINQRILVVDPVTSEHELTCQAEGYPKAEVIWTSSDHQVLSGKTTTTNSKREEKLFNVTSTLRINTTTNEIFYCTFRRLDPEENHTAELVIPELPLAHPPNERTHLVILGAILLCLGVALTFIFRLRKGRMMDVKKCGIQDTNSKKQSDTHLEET
Chain of PD-1/PD-L1 (Q9NZQ7 19-238): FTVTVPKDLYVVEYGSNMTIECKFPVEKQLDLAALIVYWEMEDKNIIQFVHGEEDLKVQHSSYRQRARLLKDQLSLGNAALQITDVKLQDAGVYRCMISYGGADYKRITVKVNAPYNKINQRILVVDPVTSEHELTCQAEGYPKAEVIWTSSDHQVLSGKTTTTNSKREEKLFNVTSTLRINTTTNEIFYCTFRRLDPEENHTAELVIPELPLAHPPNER
Chain of extracellular domains of PD-L1 (Q9NZQ7 19-238): as above

For the molecule `O=C1COc2cc(-c3cccc(-c4cccc(-c5ccc6c(c5)OCC(=O)N6C[C@@H]5CCCN5)c4Cl)c3Cl)ccc2N1C[C@@H]1CCCN1` [Compound 411, 7,7′-(2,2′-dichloro-[1,1′-biphenyl]-3,3′-diyl)bis(4-(((S)-pyrrolidin-2-yl)methyl)-2H-benzo[b][1,4]oxazin-3(4H)-one)], in test [1], a half-maximal response (EC50) required 357 nM. Also, at PD-L1/CHO-K1 cells, the Internalization worked out at 66.90%. At PD-1/PD-L1, this molecule showed an IC50 of 6.14 nM.
In test [1], `O=C(O)[C@@H]1C[C@@H](O)CN1CCN1C(=O)COc2cc(-c3cccc(-c4cccc(-c5ccc6c(c5)OCC(=O)N6CCN5C[C@H](O)C[C@H]5C(=O)O)c4Cl)c3Cl)ccc21` [Compound 454] displayed an EC50 of 326 nM. On PD-L1/CHO-K1 cells, this molecule gave an Internalization of 5.20%. Further, on PD-1/PD-L1, the IC50 turned out to be 1.42 nM.
On to `O=C(O)CC(O)CNCCN1C(=O)COc2cc(-c3cccc(-c4cccc(-c5ccc6c(c5)OCC(=O)N6CCNCC(O)CC(=O)O)c4Cl)c3Cl)ccc21` (stereo not shown) [Compound 470], for which the Internalization at PD-L1/CHO-K1 cells turned out to be 20.90%. The molecule further came in with an IC50 on PD-1/PD-L1 of 2.28 nM.
As to `O=C1COc2cc(-c3cccc(-c4cccc(-c5ccc6c(c5)OCC(=O)N6C[C@@H]5C[C@@H](O)CN5)c4Cl)c3Cl)ccc2N1C[C@@H]1C[C@@H](O)CN1` [Compound 472], the midpoint of the response in test [1], the EC50, lay at 359 nM. At PD-L1/CHO-K1 cells, this molecule gave an Internalization of 17.20%. Besides, the concentration for half-maximal inhibition (IC50) on PD-1/PD-L1 turned out to be 5.27 nM.
Take `CC(CO)(NCCN1C(=O)COc2cc(-c3cccc(-c4cccc(-c5ccc6c(c5)OCC(=O)N6CCNC(C)(CO)C(=O)O)c4Cl)c3Cl)ccc21)C(=O)O` (stereo not shown) [Compound 475]: on PD-L1/CHO-K1 cells, the Internalization is recorded as 31.50%. In addition, at PD-1/PD-L1, the IC50 was 3.23 nM.
The corresponding values for `O=C1COc2cc(-c3cccc(-c4cccc(-c5ccc6c(c5)OCC(=O)N6CCN5CC[C@H](O)C5)c4Cl)c3Cl)ccc2N1CCN1CC[C@H](O)C1` [Compound 476] are 6.10% and 5.22 nM.
Turning to `O=C(O)CCNCCCN1C(=O)COc2cc(-c3cccc(-c4cccc(-c5ccc6c(c5)OCC(=O)N6CCCNCCC(=O)O)c4Cl)c3Cl)ccc21` [Compound 480], the Internalization on PD-L1/CHO-K1 cells was 5.70%. Further, at PD-1/PD-L1, the IC50 is 5.48 nM.
On PD-L1/CHO-K1 cells, `O=C(O)C1CCN(CCN2C(=O)COc3cc(-c4cccc(-c5cccc(-c6ccc7c(c6)OCC(=O)N7CCN6CC[C@H](O)C6)c5Cl)c4Cl)ccc32)C1` (stereo partly drawn) [Compound 481, 1-(2-(7-(2,2′-dichloro-3′-(4-(2-((S)-3-hydroxypyrrolidin-1-yl)ethyl)-3-oxo-3,4-dihydro-2H-benzo[b][1,4]oxazin-7-yl)-[1,1′-biphenyl]-3-yl)-3-oxo-2,3-dihydro-4H-benzo[b][1,4]oxazin-4-yl)ethyl)pyrrolidine-3-carboxylic acid] registered an Internalization of 8.70%. Besides, at PD-1/PD-L1, the 50% inhibitory concentration (IC50) turned out to be 4.69 nM.
For `O=C(O)[C@@H](CO)NCCN1C(=O)COc2cc(-c3cccc(-c4cccc(-c5ccc6c(c5)OCC(=O)N6CCN[C@H](CO)C(=O)O)c4Cl)c3Cl)ccc21` [Compound 483] the same measures were 19.80% and 6.31 nM.
For the molecule `O=C1COc2cc(-c3cccc(-c4cccc(-c5ccc6c(c5)OCC(=O)N6C[C@@H]5CCNC5)c4Cl)c3Cl)ccc2N1C[C@@H]1CCNC1` [Compound 503], at PD-L1/CHO-K1 cells, the Internalization was determined as 3.50%. On PD-1/PD-L1, this molecule showed a concentration for half-maximal inhibition (IC50) of 4.19 nM.
With `Cl.O=C1CC[C@@H](CN2C(=O)COc3cc(-c4cccc(-c5cccc(-c6ccc7c(c6)OCC(=O)N7C[C@@H]6CCCN6)c5Cl)c4Cl)ccc32)N1` [Compound 517], on PD-L1/CHO-K1 cells, the Internalization is 22.80%. For the same molecule, the IC50 at PD-1/PD-L1 stood at 7.46 nM.
`O=C(O)C[C@H](CO)NCCN1C(=O)COc2cc(-c3cccc(-c4cccc(-c5ccc6c(c5)OCC(=O)N6CCN[C@@H](CO)CC(=O)O)c4Cl)c3Cl)ccc21` [Compound 528] registered an EC50 in test [1] of 175 nM. The Internalization at PD-L1/CHO-K1 cells is on record as 13.30%. Besides, the 50% inhibitory concentration (IC50) at PD-1/PD-L1 was found to be 5.04 nM.
On to `O=C1COc2cc(-c3cccc(-c4cccc(-c5ccc6c(c5)OCC(=O)N6C[C@@H]5CC(F)(F)CN5)c4Cl)c3Cl)ccc2N1C[C@@H]1CC(F)(F)CN1` [Compound 530], for which, at PD-L1/CHO-K1 cells, the Internalization was determined as 1.60%. The same molecule yielded an IC50 on PD-1/PD-L1 of 76.9 nM.
For the molecule `C[C@H](NCCN1C(=O)COc2cc(-c3cccc(-c4cccc(-c5ccc6c(c5)OCC(=O)N6CCN[C@@H](C)C(=O)O)c4Cl)c3Cl)ccc21)C(=O)O` [Compound 536], the Internalization on PD-L1/CHO-K1 cells was 7.90%. This molecule also had an IC50 at PD-1/PD-L1 of 4.31 nM.
Molecule `NCCN1C(=O)COc2cc(-c3cccc(-c4cccc(-c5ccc6c(c5)OCC(=O)N6CCN)c4Cl)c3Cl)ccc21` [Compound 538] displayed an Internalization at PD-L1/CHO-K1 cells of 3.60%. This molecule also returned an IC50 at PD-1/PD-L1 of 8.18 nM.
Molecule `O=C1COc2cc(-c3cccc(-c4cccc(-c5ccc6c(c5)OCC(=O)N6C[C@H]5NC6CCC5C6)c4Cl)c3Cl)ccc2N1C[C@H]1NC2CCC1C2` [Compound 539] registered an Internalization on PD-L1/CHO-K1 cells of 11.60%. This molecule came in with a 50% inhibitory concentration (IC50) on PD-1/PD-L1 of 7.73 nM.
For the molecule `O=C1COc2cc(-c3cccc(-c4cccc(-c5ccc6c(c5)OCC(=O)N6C[C@@H]5CC6(CC6)CN5)c4Cl)c3Cl)ccc2N1C[C@@H]1CC2(CC2)CN1` [Compound 540], the Internalization on PD-L1/CHO-K1 cells is 10.60%. Further, the half-inhibitory concentration (IC50) on PD-1/PD-L1 was determined as 10.5 nM.
The corresponding values for `O=C1COc2cc(-c3cccc(-c4cccc(-c5ccc6c(c5)OCC(=O)N6CCN[C@@H](CO)C(=O)O)c4Cl)c3Cl)ccc2N1` [Compound 542] are 3.30% and 5.24 nM.
In the case of `C[C@@H](O)[C@H](NCCN1C(=O)COc2cc(-c3cccc(-c4cccc(-c5ccc6c(c5)OCC(=O)N6CCN[C@H](C(=O)O)[C@@H](C)O)c4Cl)c3Cl)ccc21)C(=O)O` [Compound 545], the Internalization at PD-L1/CHO-K1 cells amounted to 7.80%. Moreover, the IC50 at PD-1/PD-L1 is 4.81 nM.
For `C[C@H](O)[C@@H](NCCN1C(=O)COc2cc(-c3cccc(-c4cccc(-c5ccc6c(c5)OCC(=O)N6CCN[C@@H](C(=O)O)[C@H](C)O)c4Cl)c3Cl)ccc21)C(=O)O` [Compound 551] the same measures were 3.10% and 2.64 nM.
With `O=C(O)[C@@H](CCO)NCCN1C(=O)COc2cc(-c3cccc(-c4cccc(-c5ccc6c(c5)OCC(=O)N6CCN[C@H](CCO)C(=O)O)c4Cl)c3Cl)ccc21` [Compound 552], the Internalization on PD-L1/CHO-K1 cells is 4.90%. In addition, the IC50 at PD-1/PD-L1 was 7.25 nM.
The corresponding values for `O=C(O)[C@H](CO)NCCN1C(=O)COc2c1ccc(-c1cccc(-c3cccc(-c4ccc5c(c4F)OCC(=O)N5CCN[C@@H](CO)C(=O)O)c3Cl)c1Cl)c2F` [Compound 557] are 20.30% and 5.33 nM.
The molecule `O=C(O)[C@H](CCO)NCCN1C(=O)COc2cc(-c3cccc(-c4cccc(-c5ccc6c(c5)OCC(=O)N6CCN[C@@H](CCO)C(=O)O)c4Cl)c3Cl)ccc21` [Compound 560] had an Internalization on PD-L1/CHO-K1 cells of 3.10%. On PD-1/PD-L1, this molecule yielded a half-maximal inhibitory concentration (IC50) of 7.78 nM.
With `O=C(O)[C@H](CO)NCCN1C(=O)COc2cc(-c3cccc(-c4cccc(-c5cc(F)c6c(c5)OCC(=O)N6CCN[C@@H](CO)C(=O)O)c4Cl)c3Cl)cc(F)c21` [Compound 561], the Internalization at PD-L1/CHO-K1 cells turned out to be 5.30%. The IC50 at PD-1/PD-L1 is 8.95 nM.
